Consider two substances from patent US8143374B2, “Polypeptide derivatives of parathyroid hormone (PTH)” (The General Hospital Corporation, priority 2006, dated 2012).

The target of test [1] is T1, endogenous PTHR in ROS 17/2.8 cells (Rattus norvegicus, UniProt P25961).
T1 construct: ROS 17/2.8 cells are rat osteosarcoma cells and express the endogenous PTHR; endogenous in cells; host or cells: ROS 17/2.8 rat osteosarcoma cells
T1 sequence (P25961 27-591): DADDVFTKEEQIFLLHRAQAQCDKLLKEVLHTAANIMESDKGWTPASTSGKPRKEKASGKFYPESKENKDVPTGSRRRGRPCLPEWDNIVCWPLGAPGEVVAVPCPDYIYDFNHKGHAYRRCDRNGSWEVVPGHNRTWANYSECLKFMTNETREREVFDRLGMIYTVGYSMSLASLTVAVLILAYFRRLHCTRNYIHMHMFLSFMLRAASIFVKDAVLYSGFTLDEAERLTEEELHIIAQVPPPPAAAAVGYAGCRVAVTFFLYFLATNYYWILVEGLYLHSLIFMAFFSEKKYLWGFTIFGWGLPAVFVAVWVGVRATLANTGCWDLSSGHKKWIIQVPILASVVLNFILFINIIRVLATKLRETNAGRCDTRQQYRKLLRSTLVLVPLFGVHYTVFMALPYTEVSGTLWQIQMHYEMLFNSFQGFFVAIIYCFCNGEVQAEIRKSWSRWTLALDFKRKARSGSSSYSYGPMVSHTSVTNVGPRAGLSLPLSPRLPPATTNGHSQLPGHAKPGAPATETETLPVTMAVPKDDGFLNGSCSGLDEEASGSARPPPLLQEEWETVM
Description: Stimulation of intracellular cAMP in ROS 17/2.8 cells. Format: cell-based. The method, then: Cell Culture—Cells were cultured at 37° C. in a humidified atmosphere containing 5% CO2 in Dulbecco's modified Eagle's medium (DMEM), supplemented with 10% fetal bovine serum (HyClone, Logan Utah), 100 units/ml penicillin G, and 100 ug/ml streptomycin penicillin G/streptomycin (Invitrogen Corp. Carlsbad, Calif.). For binding and cAMP studies performed with the intact PTHR, the HKRK-B7 and ROS 17/2.8 cell lines were used. HKRK-B7 cells are derived from the porcine kidney cell line LLC-PK1 and express, via stable DNA transfection, the wild-type human PTHR at an approximate surface density of 950,000 PTH-binding sites per cell. ROS 17/2.8 cells are rat osteosarcoma cells and express the endogenous PTHR at an approximate surface density of 80,000 PTH-binding sites per cell. The cells were plated and assayed in 24-well plates.
Stimulation of intracellular cAMP and inositol phosphate—The capacities of the ligands to stimulate adenylyl cyclase activity were assessed in intact ROS 17/2.8 cells, as described (Shimizu, M., (2001) Endocrinology 142:3068-3074). […] The cAMP in the thawed lysate was then quantified by radioimmuno assay. The stimulation of production of inositol phosphates (IP1+IP2+IP3) was assessed in COS-7 cells transfected with the intact human PTHR, as described previously (Shimizu, M., (2001) Endocrinology 142:3068-3074). […]

A further test concerns the target T2, ROS 17/2.8 cells (Rattus norvegicus, UniProt P25961).
T2 construct: ROS 17/2.8 cells are rat osteosarcoma cells and express the endogenous PTHR; host or cells: ROS 17/2.8 cells
T2 sequence (P25961 27-591): T1 sequence (P25961 27-591)
The note with it: position-20 substitutions in PTH(1-31)NH2; cited from earlier work.

Where no end group is shown, it is not given here.

Broadly, the EC50 is the midpoint of the concentration-response curve. Read a high EC50 as a need for much substance. In turn, “SVSEIQLMHNLGKHLNSMEEVEWLRKKLQDV [Arg^20→Glu]” showed a half-maximal effective concentration (EC50) in test [1] of 59 ± 31 nM. “SVSEIQLMHNLGKHLNSMEKVEWLRKKLQDV-NH2 [Arg^20→Lys]”: at ROS 17/2.8 cells, the “reduction of cAMP-stimulating potency” value was “abolished activity altogether”.
